One compound from ChEMBL document CHEMBL4507319 (2021) can be followed below.

Test [1] deals with Tyrosine-protein kinase receptor UFO (Homo sapiens) (UniProt P30530). The test is described as follows: Axl(h) Eurofins kinase panel. To be noted: Compound concentration 1.0 uM.
Test [2] has as its target T1, Bone morphogenetic protein receptor type-2 (Homo sapiens) (UniProt Q13873).
T1 sequence (whole entry): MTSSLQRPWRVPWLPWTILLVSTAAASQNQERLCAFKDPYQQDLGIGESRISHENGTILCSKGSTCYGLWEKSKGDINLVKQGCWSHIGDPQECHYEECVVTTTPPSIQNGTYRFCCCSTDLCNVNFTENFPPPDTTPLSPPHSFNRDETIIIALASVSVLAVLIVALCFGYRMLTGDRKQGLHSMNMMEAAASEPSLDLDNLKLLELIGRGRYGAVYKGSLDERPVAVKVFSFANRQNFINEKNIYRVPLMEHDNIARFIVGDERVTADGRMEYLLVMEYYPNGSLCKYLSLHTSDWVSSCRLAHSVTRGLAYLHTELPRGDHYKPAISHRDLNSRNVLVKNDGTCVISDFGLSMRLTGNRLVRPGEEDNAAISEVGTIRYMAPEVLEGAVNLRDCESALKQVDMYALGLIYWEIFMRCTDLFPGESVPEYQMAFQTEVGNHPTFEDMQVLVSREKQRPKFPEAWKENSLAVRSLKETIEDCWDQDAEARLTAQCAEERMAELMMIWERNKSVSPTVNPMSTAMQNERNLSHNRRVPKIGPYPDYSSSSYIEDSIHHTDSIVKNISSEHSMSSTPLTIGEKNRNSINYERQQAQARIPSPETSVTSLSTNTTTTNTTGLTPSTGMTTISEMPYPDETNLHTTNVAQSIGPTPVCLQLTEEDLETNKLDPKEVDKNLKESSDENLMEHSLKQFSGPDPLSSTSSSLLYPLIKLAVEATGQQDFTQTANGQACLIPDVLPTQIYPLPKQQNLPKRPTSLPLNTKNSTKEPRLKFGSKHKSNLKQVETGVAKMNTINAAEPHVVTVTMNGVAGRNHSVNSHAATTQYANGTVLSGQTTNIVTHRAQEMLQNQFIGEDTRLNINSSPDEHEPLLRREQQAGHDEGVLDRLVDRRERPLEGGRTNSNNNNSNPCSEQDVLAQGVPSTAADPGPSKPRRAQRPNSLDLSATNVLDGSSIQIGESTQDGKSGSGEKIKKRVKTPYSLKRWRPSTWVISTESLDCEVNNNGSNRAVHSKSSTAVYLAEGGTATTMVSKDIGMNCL
The test is described as follows: BMPR2(h) Eurofins kinase panel. To be noted: Compound concentration 1.0 uM.

Test [3] deals with Serine/threonine-protein kinase B-raf (Homo sapiens) (UniProt P15056). The test is described as follows: B-Raf(h) Eurofins kinase panel. To be noted: Compound concentration 1.0 uM.
The target of test [4] is Cyclin-dependent kinase 5/CDK5 activator 1 (Homo sapiens) (UniProt Q00535+Q15078). Nature of the test: CDK5/p25(h) Eurofins kinase panel. The format is protein-complex assay. To be noted: Compound concentration 1.0 uM.
Test [5] concerns the target Serine/threonine-protein kinase Chk2 (Homo sapiens) (UniProt O96017). The test is described as follows: CHK2(h) Eurofins kinase panel. The settings on record: Compound concentration 1.0 uM.
In test [6] the target is Ephrin type-A receptor 4 (Homo sapiens) (UniProt P54764). Nature of the test: EphA4(h) Eurofins kinase panel. To be noted: Compound concentration 1.0 uM.
In test [7] the target is Glycogen synthase kinase-3 alpha (Homo sapiens) (UniProt P49840). The test is described as follows: GSK3α(h) Eurofins kinase panel. The settings on record: Compound concentration 1.0 uM.
Test [8] has as its target Insulin-like growth factor 1 receptor (Homo sapiens) (UniProt P08069). The test is described as follows: IGF-1R(h) Eurofins kinase panel. The settings on record: Compound concentration 1.0 uM.
The target in test [9] is Vascular endothelial growth factor receptor 2 (Homo sapiens) (UniProt P35968). Nature of the test: KDR(h) Eurofins kinase panel. The settings on record: Compound concentration 1.0 uM.
Vascular endothelial growth factor receptor 2 (Homo sapiens), sequence (P35968 whole entry): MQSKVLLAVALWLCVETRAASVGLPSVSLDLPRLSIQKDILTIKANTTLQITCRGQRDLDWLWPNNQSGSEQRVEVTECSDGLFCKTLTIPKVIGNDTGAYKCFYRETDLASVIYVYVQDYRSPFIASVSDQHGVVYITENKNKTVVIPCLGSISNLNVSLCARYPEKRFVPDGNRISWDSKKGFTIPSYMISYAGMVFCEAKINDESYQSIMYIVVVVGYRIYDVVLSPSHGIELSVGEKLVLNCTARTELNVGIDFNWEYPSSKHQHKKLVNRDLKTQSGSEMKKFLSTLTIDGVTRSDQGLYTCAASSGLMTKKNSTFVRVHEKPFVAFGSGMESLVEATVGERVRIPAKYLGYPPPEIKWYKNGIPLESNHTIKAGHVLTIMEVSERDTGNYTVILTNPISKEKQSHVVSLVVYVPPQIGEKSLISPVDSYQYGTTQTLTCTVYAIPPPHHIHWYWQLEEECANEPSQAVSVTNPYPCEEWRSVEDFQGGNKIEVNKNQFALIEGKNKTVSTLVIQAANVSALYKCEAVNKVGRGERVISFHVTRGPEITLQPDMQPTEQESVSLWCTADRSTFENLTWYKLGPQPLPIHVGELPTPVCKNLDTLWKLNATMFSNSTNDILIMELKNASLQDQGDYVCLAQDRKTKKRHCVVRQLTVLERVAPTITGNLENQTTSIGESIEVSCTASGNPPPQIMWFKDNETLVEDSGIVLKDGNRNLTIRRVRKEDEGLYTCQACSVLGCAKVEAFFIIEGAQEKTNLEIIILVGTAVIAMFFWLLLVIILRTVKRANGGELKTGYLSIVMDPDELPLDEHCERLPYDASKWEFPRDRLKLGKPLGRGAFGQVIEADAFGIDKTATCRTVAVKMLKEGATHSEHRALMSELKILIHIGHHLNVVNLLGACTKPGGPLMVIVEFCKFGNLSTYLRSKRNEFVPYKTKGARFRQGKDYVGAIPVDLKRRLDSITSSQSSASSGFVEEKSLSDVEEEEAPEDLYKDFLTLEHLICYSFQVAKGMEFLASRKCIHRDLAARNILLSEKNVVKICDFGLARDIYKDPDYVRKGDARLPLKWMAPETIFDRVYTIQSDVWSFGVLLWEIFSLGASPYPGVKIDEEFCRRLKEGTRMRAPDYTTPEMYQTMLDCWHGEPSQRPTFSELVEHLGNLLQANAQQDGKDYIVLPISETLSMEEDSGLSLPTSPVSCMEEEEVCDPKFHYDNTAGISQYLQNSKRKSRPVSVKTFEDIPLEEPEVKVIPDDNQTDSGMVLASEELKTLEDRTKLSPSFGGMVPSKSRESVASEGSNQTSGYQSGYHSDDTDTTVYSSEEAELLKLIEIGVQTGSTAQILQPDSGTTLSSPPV
For test [10], the target named is Tyrosine-protein kinase Lyn (Homo sapiens) (UniProt P07948). Nature of the test: Lyn(h) Eurofins kinase panel. The settings on record: Compound concentration 1.0 uM.
Test [11] deals with Dual specificity mitogen-activated protein kinase kinase 2 (Homo sapiens) (UniProt P36507). Nature of the test: MEK2(h) Eurofins kinase panel. The settings on record: Compound concentration 1.0 uM.
Test [12] deals with T2, Tyrosine-protein kinase Mer (Homo sapiens) (UniProt Q12866).
T2 sequence (whole entry): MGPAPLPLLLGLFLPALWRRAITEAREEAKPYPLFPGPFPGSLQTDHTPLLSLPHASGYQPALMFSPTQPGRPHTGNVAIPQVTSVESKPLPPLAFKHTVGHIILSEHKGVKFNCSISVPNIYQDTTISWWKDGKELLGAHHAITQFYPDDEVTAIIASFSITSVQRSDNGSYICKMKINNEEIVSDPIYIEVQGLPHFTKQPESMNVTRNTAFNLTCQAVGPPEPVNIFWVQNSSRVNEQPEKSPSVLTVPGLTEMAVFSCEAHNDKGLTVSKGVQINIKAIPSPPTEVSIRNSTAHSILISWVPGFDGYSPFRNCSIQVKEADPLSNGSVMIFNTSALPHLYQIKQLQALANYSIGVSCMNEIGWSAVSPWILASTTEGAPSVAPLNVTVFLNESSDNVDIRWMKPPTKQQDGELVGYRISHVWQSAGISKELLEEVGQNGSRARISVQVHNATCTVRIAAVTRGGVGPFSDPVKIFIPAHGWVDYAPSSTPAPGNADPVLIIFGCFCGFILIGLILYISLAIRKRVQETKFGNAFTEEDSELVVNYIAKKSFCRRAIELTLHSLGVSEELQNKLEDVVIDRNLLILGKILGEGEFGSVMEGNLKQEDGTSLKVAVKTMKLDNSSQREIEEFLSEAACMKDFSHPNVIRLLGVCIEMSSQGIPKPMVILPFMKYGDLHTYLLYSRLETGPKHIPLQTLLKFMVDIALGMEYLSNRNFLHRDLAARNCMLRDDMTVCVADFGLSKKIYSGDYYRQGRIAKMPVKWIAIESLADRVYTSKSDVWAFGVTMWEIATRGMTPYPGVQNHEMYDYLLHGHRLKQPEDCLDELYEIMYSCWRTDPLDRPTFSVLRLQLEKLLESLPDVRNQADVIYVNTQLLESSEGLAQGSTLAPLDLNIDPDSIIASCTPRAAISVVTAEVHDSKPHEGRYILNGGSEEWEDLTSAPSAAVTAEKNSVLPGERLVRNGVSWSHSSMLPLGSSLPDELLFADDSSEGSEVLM
Nature of the test: Mer(h) Eurofins kinase panel. To be noted: Compound concentration 1.0 uM.

The target in test [13] is cAMP-dependent protein kinase catalytic subunit alpha (Homo sapiens) (UniProt P17612). Nature of the test: PKA(h) Eurofins kinase panel. To be noted: Compound concentration 1.0 uM.
In test [14] the target is Rho-associated protein kinase 1 (Homo sapiens) (UniProt Q13464). Nature of the test: ROCK-I(h) Eurofins kinase panel. To be noted: Compound concentration 1.0 uM.
In test [15] the target is Serine/threonine-protein kinase VRK2 (Homo sapiens) (UniProt Q86Y07). The test is described as follows: VRK2(h) Eurofins kinase panel. To be noted: Compound concentration 1.0 uM.
The next test deals with ATR/ATRIP (Homo sapiens) (UniProt Q13535+Q8WXE1). Nature of the test: ATR/ATRIP(h) Eurofins kinase panel. Format: protein-complex assay. The settings on record: Compound concentration 1.0 uM.
Another test concerns SU-DHL10. Nature of the test: SU-DHL-10 cell line Proliferation assay. The format is functional, Homo sapiens. The settings on record: time 3 day.
Another test concerns NCI-H520. The test is described as follows: NCI- H520 cell line Proliferation assay. To be noted: time 3 day. Format: functional, Homo sapiens.
For test [16], the target named is 5'-AMP-activated protein kinase catalytic subunit alpha-1 (Homo sapiens, UniProt Q13131). The settings on record: Compound concentration 1.0 uM.
For test [17], the target named is Ribosomal protein S6 kinase alpha-5 (Homo sapiens, UniProt O75582). The settings on record: Compound concentration 1.0 uM.
Ribosomal protein S6 kinase alpha-5, sequence (O75582 whole entry, looked up): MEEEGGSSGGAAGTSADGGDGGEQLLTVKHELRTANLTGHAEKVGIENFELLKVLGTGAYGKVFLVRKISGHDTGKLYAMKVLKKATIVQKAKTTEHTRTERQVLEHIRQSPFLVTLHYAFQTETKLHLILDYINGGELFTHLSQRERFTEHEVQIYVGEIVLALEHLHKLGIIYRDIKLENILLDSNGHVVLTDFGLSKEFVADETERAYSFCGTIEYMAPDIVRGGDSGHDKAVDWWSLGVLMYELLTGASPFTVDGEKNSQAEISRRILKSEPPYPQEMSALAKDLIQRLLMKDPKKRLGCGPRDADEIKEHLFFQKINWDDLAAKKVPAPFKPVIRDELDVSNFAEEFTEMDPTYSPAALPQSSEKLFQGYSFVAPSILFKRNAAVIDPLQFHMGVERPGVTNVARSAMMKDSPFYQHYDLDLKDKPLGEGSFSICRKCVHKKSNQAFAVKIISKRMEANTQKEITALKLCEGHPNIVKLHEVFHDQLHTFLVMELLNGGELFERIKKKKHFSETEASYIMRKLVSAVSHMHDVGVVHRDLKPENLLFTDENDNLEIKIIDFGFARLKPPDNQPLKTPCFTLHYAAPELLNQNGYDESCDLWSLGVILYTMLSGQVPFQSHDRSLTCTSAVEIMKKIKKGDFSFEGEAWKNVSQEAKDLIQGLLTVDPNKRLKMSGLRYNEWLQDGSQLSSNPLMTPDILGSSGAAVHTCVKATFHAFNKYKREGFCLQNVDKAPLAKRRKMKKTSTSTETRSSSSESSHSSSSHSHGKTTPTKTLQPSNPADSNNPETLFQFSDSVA

Insulin-like growth factor 1 receptor (Homo sapiens), sequence (P08069 31-736 limits assumed): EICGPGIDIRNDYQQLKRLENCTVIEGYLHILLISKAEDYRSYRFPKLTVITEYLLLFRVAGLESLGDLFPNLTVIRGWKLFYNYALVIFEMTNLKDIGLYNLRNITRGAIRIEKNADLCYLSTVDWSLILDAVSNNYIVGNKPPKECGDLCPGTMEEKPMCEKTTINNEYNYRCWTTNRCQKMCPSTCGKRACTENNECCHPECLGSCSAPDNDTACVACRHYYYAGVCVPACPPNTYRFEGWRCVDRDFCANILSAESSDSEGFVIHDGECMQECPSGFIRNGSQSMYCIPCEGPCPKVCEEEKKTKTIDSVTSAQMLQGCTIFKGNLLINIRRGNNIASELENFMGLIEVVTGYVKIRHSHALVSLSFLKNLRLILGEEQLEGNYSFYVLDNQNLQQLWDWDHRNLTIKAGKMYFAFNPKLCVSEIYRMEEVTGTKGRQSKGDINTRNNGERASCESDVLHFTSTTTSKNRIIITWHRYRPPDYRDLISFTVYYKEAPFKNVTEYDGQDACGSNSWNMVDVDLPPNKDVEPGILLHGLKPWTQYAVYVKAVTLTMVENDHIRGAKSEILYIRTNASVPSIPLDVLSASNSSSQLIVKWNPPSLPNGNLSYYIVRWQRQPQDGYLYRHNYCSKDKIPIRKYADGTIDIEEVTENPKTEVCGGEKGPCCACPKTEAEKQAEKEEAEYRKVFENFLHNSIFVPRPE
Insulin-like growth factor 1 receptor (Homo sapiens), sequence (P08069 741-1367 limits assumed): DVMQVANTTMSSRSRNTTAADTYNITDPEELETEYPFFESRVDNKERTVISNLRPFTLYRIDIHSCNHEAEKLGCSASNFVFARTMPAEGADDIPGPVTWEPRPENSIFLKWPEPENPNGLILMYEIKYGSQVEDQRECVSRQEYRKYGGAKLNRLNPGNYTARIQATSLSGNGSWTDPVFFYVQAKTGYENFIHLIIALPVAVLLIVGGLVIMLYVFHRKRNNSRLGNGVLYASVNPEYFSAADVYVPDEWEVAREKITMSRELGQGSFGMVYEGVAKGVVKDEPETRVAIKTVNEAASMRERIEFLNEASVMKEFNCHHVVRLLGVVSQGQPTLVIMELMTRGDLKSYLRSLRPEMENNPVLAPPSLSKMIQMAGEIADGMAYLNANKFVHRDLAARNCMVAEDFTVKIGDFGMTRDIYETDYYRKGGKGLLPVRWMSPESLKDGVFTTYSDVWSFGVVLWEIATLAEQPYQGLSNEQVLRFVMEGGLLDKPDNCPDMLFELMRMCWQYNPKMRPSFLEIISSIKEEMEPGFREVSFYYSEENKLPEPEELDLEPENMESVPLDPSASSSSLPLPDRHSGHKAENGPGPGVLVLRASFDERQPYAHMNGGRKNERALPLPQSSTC
Serine/threonine-protein kinase Chk2 (Homo sapiens), sequence (O96017 whole entry): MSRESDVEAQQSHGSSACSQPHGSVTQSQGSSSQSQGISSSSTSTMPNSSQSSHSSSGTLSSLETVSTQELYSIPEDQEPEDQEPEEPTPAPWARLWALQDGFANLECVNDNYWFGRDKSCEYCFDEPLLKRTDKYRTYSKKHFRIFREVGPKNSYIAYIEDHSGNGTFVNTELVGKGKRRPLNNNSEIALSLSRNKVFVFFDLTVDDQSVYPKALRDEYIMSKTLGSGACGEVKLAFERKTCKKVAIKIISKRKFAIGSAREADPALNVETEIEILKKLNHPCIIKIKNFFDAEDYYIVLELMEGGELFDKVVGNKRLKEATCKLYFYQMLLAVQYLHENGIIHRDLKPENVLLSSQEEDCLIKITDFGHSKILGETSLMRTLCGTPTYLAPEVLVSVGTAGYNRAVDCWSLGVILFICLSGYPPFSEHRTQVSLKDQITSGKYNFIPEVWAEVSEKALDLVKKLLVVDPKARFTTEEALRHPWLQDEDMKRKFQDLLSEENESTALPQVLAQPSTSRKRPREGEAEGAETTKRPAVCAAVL
Tyrosine-protein kinase receptor UFO (Homo sapiens), sequence (P30530 whole entry): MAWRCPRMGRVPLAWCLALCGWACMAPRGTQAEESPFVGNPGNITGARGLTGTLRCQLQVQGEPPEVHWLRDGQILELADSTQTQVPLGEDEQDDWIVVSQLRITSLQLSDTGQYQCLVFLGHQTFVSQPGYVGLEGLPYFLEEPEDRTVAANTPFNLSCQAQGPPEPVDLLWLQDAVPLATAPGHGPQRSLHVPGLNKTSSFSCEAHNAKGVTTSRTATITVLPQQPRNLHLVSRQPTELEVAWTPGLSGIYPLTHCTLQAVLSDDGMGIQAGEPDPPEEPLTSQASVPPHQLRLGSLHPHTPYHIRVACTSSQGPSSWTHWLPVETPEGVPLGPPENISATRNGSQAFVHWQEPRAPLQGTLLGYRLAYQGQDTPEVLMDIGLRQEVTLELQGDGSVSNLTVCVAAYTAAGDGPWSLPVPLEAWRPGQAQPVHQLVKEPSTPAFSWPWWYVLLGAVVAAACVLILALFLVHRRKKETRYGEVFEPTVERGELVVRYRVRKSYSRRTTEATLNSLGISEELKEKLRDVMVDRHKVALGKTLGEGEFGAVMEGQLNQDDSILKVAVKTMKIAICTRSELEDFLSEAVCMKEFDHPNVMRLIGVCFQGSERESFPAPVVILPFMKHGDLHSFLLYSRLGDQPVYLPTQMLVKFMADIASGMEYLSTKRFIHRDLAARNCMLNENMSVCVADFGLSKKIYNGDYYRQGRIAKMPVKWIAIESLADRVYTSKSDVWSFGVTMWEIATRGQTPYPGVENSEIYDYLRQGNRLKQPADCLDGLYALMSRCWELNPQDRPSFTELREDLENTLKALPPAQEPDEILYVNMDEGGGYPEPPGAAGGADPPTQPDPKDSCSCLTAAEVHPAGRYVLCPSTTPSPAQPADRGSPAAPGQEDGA

With `CCc1ccccc1C(=O)Nc1n[nH]c2c(C)c(F)c(C3C(C#N)=C(C)N(C)C(C)=C3C#N)cc12` [BAY-3827], the % residual kinase activity is 100% in test [1]; 104% in test [2]; 99% in test [3]; 98% in test [4]; 100% in [5]; 106% in test [6]. In addition, the % residual kinase activity in test [7] was 83%; in [8], 110%; in [9] it was 90%; in test [10], 110%; in [11], 112%; in test [12], 96%. Besides, the % residual kinase activity in test [13] is 103%; in [14], 104%; in [15], 98%; on ATR/ATRIP (Homo sapiens) it was 94%; in [16] it was 1%; in test [17], 10%. In addition, the “Cell Proliferation IC50” value in the test on SU-DHL10 was 12.5 µM; in the test on NCI-H520, 24.1 µM.
